The values below come from patent US12459951B2, “Compounds that interact with RAS superfamily proteins for treatment of cancers, inflammatory diseases, rasopathies, and fibrotic disease” (SHY Therapeutics, LLC, priority 2022, dated 2025).

One test relates to JNK phosphorylation. The test can be described thus: JNK Activation Assay (western blot), Panc-1. The test is classed as cell-based, human. As to conditions: at 10 μM, Panc-1 pancreatic cancer cell line; starred symbols = activation. As to the method:
Protocol for JNK Activation Assay
This assay is referred to as the “JNK Activation Assay” throughout this application.
Cell lines: Human tumor-derived pancreatic cancer cell line Panc-1 (expressing KRas […] mutant) was purchased from American Type Culture Collection and grown in complete DMEM-High Glucose medium, supplemented with penicillin (100 U/mL), streptomycin (100 μg/mL), and 10% heat-inactivated FBS at 37° C. in a humidified incubator with 5% CO2.
Method 1: Cells were plated at 350000 cells/well density in a 12-well plate, allowed 3 hours to adhere to the plate, then starved in the appropriate medium in the presence of 0.5% FBS overnight. The small molecules to be tested were added to the cells in the final concentration of 10 μM in the presence of 0.3% DMSO for 6 hours incubation at 37° C. For IC50 value determination, serial dilutions of compounds were added to cells under the same conditions. Next, cells were stimulated with 1.5 ng/ml EGF for 15 minutes then cells were lysed with lysis buffer containing 1% Triton X-100, EDTA, and Halt™ Protease & Phosphatase Inhibitor Cocktail (Thermo Scientific). Protein concentration was assessed by BCA protein assay (Thermo Scientific). Phosphorylation level of JNK was determined by western blot.
Method 2: Cells were plated at 350000 cells/well density in a 12-well plate in the presence of 10% FBS. The next day small molecules to be tested were added to the cells in the final concentration of 10 μM in the presence of 0.3% DMSO for 6 hours incubation at 37° C. For IC50 value determination, serial dilutions of compounds were added to cells under the same conditions. Next, cells were lysed with lysis buffer containing 1% Triton X-100, EDTA, and Halt™ Protease & Phosphatase Inhibitor Cocktail (Thermo Scientific). Protein concentration was assessed by BCA protein assay (Thermo Scientific). Phosphorylation level of JNK was determined by western blot.
Western blot protocol: Equal amounts of protein (15-50 μg) were separated by SDS-PAGE and transferred to nitrocellulose membranes (Invitrogen by Thermo Fisher Scientific). The membrane was stained with Ponceau S Stain (Boston BioProducts) to verify uniform protein loading. Membranes were blocked with 10% milk and phosphorylation levels of JNK were assessed by incubating overnight at 4° C. with the antibody Phospho-SAPK/JNK (Thr183/Tyr185), from Cell Signaling Technology. Then the membranes were incubated with HRP-conjugated secondary antibody (Jackson Immunoresearch, West Grove, PA). Bands were incubated in Amersham ECL Prime Western Blotting Detection Reagent (GE Healthcare) and visualized using the ChemiDoc MP imaging system (Bio-Rad).

The next test deals with T1, cdc42 (Homo sapiens, UniProt P60953).
T1 construct: made in house
T1 sequence (P60953 whole entry): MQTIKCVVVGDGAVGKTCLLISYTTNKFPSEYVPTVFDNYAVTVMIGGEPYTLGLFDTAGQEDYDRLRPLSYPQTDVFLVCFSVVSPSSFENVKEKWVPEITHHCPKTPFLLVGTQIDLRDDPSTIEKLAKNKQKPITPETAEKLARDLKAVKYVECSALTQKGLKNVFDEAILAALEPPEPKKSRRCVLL
The test can be described thus: Cdc42 GTP Binding Domain Inhibition Assay. As to conditions: read-out: Cdc42: % inh. As to the method: (§1) Protocol for Cdc42 and Rheb GTP Binding Domain Inhibition Assay
(§2) The following method was developed as specific assay for cdc42 and Rheb proteins.
(§3) • 25 mM Tris-HCl, pH 7.4 • 27 mM KCl • 137 mM NaCl • 1 mM MgCl2 • 1 mM DTT Buffer-II: • 50 mM Tris-HCl, pH 7.0 • 1 mM MgCl2 • 1 mM DTT
(§4) The small GTPases proteins cdc42 and Rheb were expressed as His-tagged proteins. For the assay, the cdc42 and Rheb purified small GTPases proteins were diluted in Buffer-I or Buffer-II to a final concentration of 10-30 μg/mL. 200 μL of each diluted protein was added to a nickel-coated 96-well plate and incubated overnight at […]. Then the protein solution was discarded and 200 μL of Buffer-I or Buffer-II was added to each well in the presence of 1% DMSO. Compounds to be tested were added to the protein-coated wells at final concentration of 20 μM, and incubated for 3 hours at room temperature with and without 10-30 μg/mL of Sos added to the final hour of the incubation. When performing IC50 measurements a serial dilution of all tested concentrations was added. Then Cy3-GTP or Cy5-GTP was added to each well to a final concentration of 100 nM. The labeled GTP was incubated for 45 minutes at room temperature. Following GTP incubation, wells were washed 3× in Buffer-I or Buffer-II and 200 μL of Buffer-I or Buffer-II was added to each well. Following washes, the amount of bound labeled-GTP was measured using a SpectraMax M3 (Molecular Devices).

For a further test, the target named is T2, Rheb (Homo sapiens, UniProt Q15382).
T2 construct: made in house
T2 sequence (Q15382 whole entry): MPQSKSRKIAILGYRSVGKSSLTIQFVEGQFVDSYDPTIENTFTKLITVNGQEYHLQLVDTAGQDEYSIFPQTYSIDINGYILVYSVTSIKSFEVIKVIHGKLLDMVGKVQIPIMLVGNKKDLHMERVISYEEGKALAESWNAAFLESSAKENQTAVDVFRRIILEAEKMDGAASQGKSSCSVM
In words: Rheb GTP Binding Domain Inhibition Assay. The conditions noted are these: read-out: Rheb: % inh. How it is done:
as §1, §2, §3, §4

Take `CO[C@H]1CC[C@@H](Nc2nc(-c3nccn3C)nn3cc(-c4ccn(C(C)C)n4)c(C(C)C)c23)C1` (racemic) [Compound 36, rac 5-Isopropyl-6-(1-isopropyl-1H-pyrazol-3-yl)-N-((1R,3S)-3-methoxycyclopentyl)-2-(1-methyl-1H-imidazol-2-yl)pyrrolo[2,1-f][1,2,4]triazin-4-amine]: the “% inh of JNK in Panc-1” value in the test on JNK phosphorylation was “H* (H* ≥ 100% activation)”.

On to `COc1cncnc1Nc1nc(-c2nccn2C)nn2cc(-c3ccn(C(C)C)n3)c(C)c12` [Compound 73, 6-(1-Isopropyl-1H-pyrazol-3-yl)-N-(5-methoxypyrimidin-4-yl)-5-methyl-2-(1-methyl-1H-imidazol-2-yl)pyrrolo[2,1-f][1,2,4]triazin-4-amine], for which the inhibition at 20 µM on cdc42 and on Rheb was 50 to 75% throughout. Regarding `COCCO[C@H]1C[C@H](Nc2nc(-c3nccn3C)nn3cc(-c4cccc(OC)c4F)c(-c4ccccc4)c23)C1` [Compound 44, 6-(2-Fluoro-3-methoxyphenyl)-N-((1r,3r)-3-(2-methoxyethoxy)cyclobutyl)-2-(1-methyl-1H-imidazol-2-yl)-5-phenylpyrrolo[2,1-f][1,2,4]triazin-4-amine], the “% inh of JNK in Panc-1” value in the test on JNK phosphorylation was “H* (H* ≥ 100% activation)”. The inhibition at 20 µM at cdc42 and at Rheb was 26 to 49% in each case.

On to `COc1cccc(-c2cn3nc(-c4nccn4C)nc(N[C@@H]4CC[C@H](OC)C4)c3c2-c2ccccc2)c1Cl` (racemic) [Compound 33, rac 6-(2-Chloro-3-methoxyphenyl)-N-((1R,3S)-3-methoxycyclopentyl)-2-(1-methyl-1H-imidazol-2-yl)-5-phenylpyrrolo[2,1-f][1,2,4]triazin-4-amine], for which the “% inh of JNK in Panc-1” value with JNK phosphorylation is “G (G = 75-99% inhibition)”. For `COCC1CCN(c2nc(-c3ccccn3)nn3cc(-c4ccn(C(C)C)n4)c(-c4ccccc4)c23)C1` (racemic) [Compound 25, rac 6-(1-Isopropyl-1H-pyrazol-3-yl)-4-(3-(methoxymethyl)pyrrolidin-1-yl)-5-phenyl-2-(pyridin-2-yl)pyrrolo[2,1-f][1,2,4]triazine], in the test with JNK phosphorylation, the “% inh of JNK in Panc-1” value is “H* (H* ≥ 100% activation)”. Same read-out and setting: with `COCCCNc1nc(-c2nccn2C)nn2cc(-c3cccc(OC)c3Cl)c(-c3ccccc3)c12` [Compound 30, 6-(2-Chloro-3-methoxyphenyl)-N-(3-methoxypropyl)-2-(1-methyl-1H-imidazol-2-yl)-5-phenylpyrrolo[2,1-f][1,2,4]triazin-4-amine] the entry was “F (F = 31-74% inhibition)”; with `COC[C@@H]1CC[C@@H]1CNc1nc(-c2ccccn2)nn2cc(-c3ccn(C(C)C)n3)c(-c3ccccc3)c12` (racemic) [Compound 26, rac 6-(1-Isopropyl-1H-pyrazol-3-yl)-N-(((1S,2R)-2-(methoxymethyl)cyclobutyl)methyl)-5-phenyl-2-(pyridin-2-yl)pyrrolo[2,1-f][1,2,4]triazin-4-amine], “H* (H* ≥ 100% activation)”. On to `COc1cccc(-c2cn3nc(-c4nccn4C)nc(O)c3c2-c2ccccc2)c1Cl` [Compound 28, 6-(2-Chloro-3-methoxyphenyl)-2-(1-methyl-1H-imidazol-2-yl)-5-phenylpyrrolo[2,1-f][1,2,4]triazin-4-ol], for which, in the test with JNK phosphorylation, the “% inh of JNK in Panc-1” value is listed as “H* (H* ≥ 100% activation)”. Take `COc1cc(Nc2nc(-c3nccn3C)nn3cc(-c4ccncc4)c(C)c23)ncn1` [Compound 49, N-(6-Methoxypyrimidin-4-yl)-5-methyl-2-(1-methyl-1H-imidazol-2-yl)-6-(pyridin-4-yl)pyrrolo[2,1-f][1,2,4]triazin-4-amine]: the inhibition at 20 µM on cdc42 lay within 1 to 25%; on Rheb it was 26 to 49%. Take `COc1cc(Nc2nc(-c3nccn3C)nn3cc(-c4cccnc4)c(C)c23)ncn1` [Compound 48, N-(6-Methoxypyrimidin-4-yl)-5-methyl-2-(1-methyl-1H-imidazol-2-yl)-6-(pyridin-3-yl)pyrrolo[2,1-f][1,2,4]triazin-4-amine]: the inhibition at 20 µM on cdc42 and at Rheb was 50 to 75% throughout. With `COc1cccc(-c2cn3nc(-c4nccn4C)nc(N[C@H]4C[C@@H](OC)C4)c3c2-c2ccccc2)c1Cl` [Compound 31, 6-(2-Chloro-3-methoxyphenyl)-N-((1s,3s)-3-methoxycyclobutyl)-2-(1-methyl-1H-imidazol-2-yl)-5-phenylpyrrolo[2,1-f][1,2,4]triazin-4-amine], the “% inh of JNK in Panc-1” value with JNK phosphorylation is “H* (H* ≥ 100% activation)”.

Take `COCCNc1nc(-c2nccn2C)nn2cc(-c3cccc(OC)c3Cl)c(-c3ccccc3)c12` [Compound 29, 6-(2-Chloro-3-methoxyphenyl)-N-(2-methoxyethyl)-2-(1-methyl-1H-imidazol-2-yl)-5-phenylpyrrolo[2,1-f][1,2,4]triazin-4-amine]: in the test on JNK phosphorylation, the “% inh of JNK in Panc-1” value is reported as “H (H = 100% inhibition)”. The same measure, in the same setting: with `COCCNc1nc(-c2nccn2C)nn2cc(-c3ccn(C(C)C)n3)c(C(C)C)c12` [Compound 35, 5-Isopropyl-6-(1-isopropyl-1H-pyrazol-3-yl)-N-(2-methoxyethyl)-2-(1-methyl-1H-imidazol-2-yl)pyrrolo[2,1-f][1,2,4]triazin-4-amine] the entry was “H* (H* ≥ 100% activation)”; with `CO[C@H]1CC[C@@H](Nc2nc(-c3ccccn3)nn3cc(-c4ccn(C(C)C)n4)c(-c4ccccc4)c23)C1` (racemic) [Compound 24, rac 6-(1-Isopropyl-1H-pyrazol-3-yl)-N-((1R,3S)-3-methoxycyclopentyl)-5-phenyl-2-(pyridin-2-yl)pyrrolo[2,1-f][1,2,4]triazin-4-amine], “H* (H* ≥ 100% activation)”. On to `COc1ccc(Nc2nc(-c3nccn3C)nn3cc(-c4ccn(C(C)C)n4)c(C)c23)nn1` [Compound 74, 6-(1-Isopropyl-1H-pyrazol-3-yl)-N-(6-methoxypyridazin-3-yl)-5-methyl-2-(1-methyl-1H-imidazol-2-yl)pyrrolo[2,1-f][1,2,4]triazin-4-amine], for which the inhibition at 20 µM on cdc42 and on Rheb was 0% in each case. Regarding `COc1cccc(Nc2nc(-c3nccn3C)nn3cc(-c4ccn(C(C)C)n4)c(-c4ccccc4)c23)n1` [Compound 23, 6-(1-Isopropyl-1H-pyrazol-3-yl)-N-(6-methoxypyridin-2-yl)-2-(1-methyl-1H-imidazol-2-yl)-5-phenylpyrrolo[2,1-f][1,2,4]triazin-4-amine], in the test with JNK phosphorylation, the “% inh of JNK in Panc-1” value is reported as “H* (H* ≥ 100% activation)”. Same read-out and setting: with `COC1CCCN(c2nc(-c3ccccn3)nn3cc(-c4ccn(C(C)C)n4)c(-c4ccccc4)c23)C1` (racemic) [Compound 27, rac 6-(1-Isopropyl-1H-pyrazol-3-yl)-4-(3-methoxypiperidin-1-yl)-5-phenyl-2-(pyridin-2-yl)pyrrolo[2,1-f][1,2,4]triazine] the entry was “H* (H* ≥ 100% activation)”. Consider `Cc1c(-c2ccn(C(C)C)n2)cn2nc(-c3nccn3C)nc(Nc3cc(C4CC4)n[nH]3)c12` [Compound 68, N-(3-Cyclopropyl-1H-pyrazol-5-yl)-6-(1-isopropyl-1H-pyrazol-3-yl)-5-methyl-2-(1-methyl-1H-imidazol-2-yl)pyrrolo[2,1-f][1,2,4]triazin-4-amine], for which the inhibition at 20 µM on cdc42 and on Rheb was 76 to 100% throughout.
